Experimental data published in the supplement of paper PMC11061612.

How the values were obtained:
Test in all cases: Bliss excess, mean over the matrix (fraction); higher = more synergy
EW-22 (Ewing's Sarcoma) = system: EW-22 (Ewing's Sarcoma)
Outline: (§1)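 Cell lines grown in DMEM/F12 or RPMI with 10% FBS were plated in 1536-well plates and held 24 hours at 37°C, 5% CO2 before 72 hours of exposure to two-drug dose matrices, with DMSO typically at 0.2%. CellTiter-Glo 2.0 luminescence gave viability, which was converted to inhibition. Vehicle wells were set to 0 and blank wells to 1. Combination Emax is the second-highest inhibition in the matrix, and Bliss excess is the observed combination effect minus the expected EA + EB − EA·EB, where EA and EB are the single-agent effects.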

[1] = system: GDM-1 (Acute Myeloid Leukemia)
Outline: as §1

[2] = system: EFM-192A (Breast Carcinoma)
Outline: as §1

[3] = system: SK-LMS-1 (Other Solid Carcinomas)
Outline: as §1

[4] = system: TYK-nu (Ovarian Carcinoma)
Outline: as §1

HuO9 (Osteosarcoma) = system: HuO9 (Osteosarcoma)
Outline: as §1

D-392MG (Glioblastoma) = system: D-392MG (Glioblastoma)
Outline: as §1

H4 (Low Grade Glioma) = system: H4 (Low Grade Glioma)
Outline: as §1

[5] = system: SNG-M (Endometrial Carcinoma)
Outline: as §1

MSTO-211H (Mesothelioma) = system: MSTO-211H (Mesothelioma)
Outline: as §1

[6] = system: RCC10RGB (Kidney Carcinoma)
Outline: as §1

SK-MEL-1 (Melanoma) = system: SK-MEL-1 (Melanoma)
Outline: as §1

[7] = system: SNU-61 (Colorectal Carcinoma)
Outline: as §1

[8] = system: ETK-1 (Biliary Tract Carcinoma)
Outline: as §1

[9] = system: SW48 (Colorectal Carcinoma)
Outline: as §1

[10] = system: MEG-01 (Chronic Myelogenous Leukemia)
Outline: as §1

[11] = system: KG-1 (Acute Myeloid Leukemia)
Outline: as §1

[12] = system: P31-FUJ (Acute Myeloid Leukemia)
Outline: as §1

[13] = system: CAL-39 (Other Solid Carcinomas)
Outline: as §1

[14] = system: SLVL (B-Cell Non-Hodgkin's Lymphoma)
Outline: as §1

Q: For `CC1(C)CCC(CN2CCN(c3ccc(C(=O)NS(=O)(=O)c4ccc(NCC5CCOCC5)c([N+](=O)[O-])c4)c(Oc4cnc5[nH]ccc5c4)c3)CC2)=C(c2ccc(Cl)cc2)C1` [Venetoclax] + Cn1cnc2c(F)c(Nc3ccc(Br)cc3Cl)c(C(=O)NOCCO)cc21 [Selumetinib] (first compound max 1 µM, 7x7, partner max 3 µM), which Bliss excess (EW-22 (Ewing's Sarcoma)) is on record?
A: -0.0233

Q: And the Bliss excess [1]?
A: 0.0554

Q: And the Bliss excess [2]?
A: -0.0245

Q: And the Bliss excess [3]?
A: -0.029

Q: What about the Bliss excess [4] of the same compound?
A: -0.0594

Q: And the Bliss excess (HuO9 (Osteosarcoma))?
A: -0.0173

Q: And the Bliss excess (D-392MG (Glioblastoma))?
A: -0.0331

Q: What about the Bliss excess (H4 (Low Grade Glioma)) of the same compound?
A: 0.006

Q: And the Bliss excess [5]?
A: -0.0282

Q: What about the Bliss excess (MSTO-211H (Mesothelioma)) of the same compound?
A: -0.0393

Q: And the Bliss excess [6]?
A: -0.079

Q: And the Bliss excess (SK-MEL-1 (Melanoma))?
A: -0.0332

Q: And the Bliss excess [7]?
A: 0.0136

Q: And the Bliss excess [8]?
A: -0.0333

Q: What about the Bliss excess [9] of the same compound?
A: 0.0113

Q: What about the Bliss excess [10] of the same compound?
A: -0.0242

Q: And the Bliss excess [11]?
A: 0.0735

Q: And the Bliss excess [12]?
A: -0.0968

Q: What about the Bliss excess [13] of the same compound?
A: 0.0138

Q: What about the Bliss excess [14] of the same compound?
A: 0.0299

Q: `CN(C)CCCOc1ccc(-c2ccc3ncc4c(c3c2)n(C2CCOCC2)c(=O)n4C)cn1` [AZD0156] + C[C@@H]1COCCN1C2=NC(=NC(=C2)C3(CC3)[S@](=N)(=O)C)C4=C5C=CNC5=NC=C4 [AZD6738] (first compound max 1 µM, 7x7, partner max 10 µM) was tested. Which Bliss excess (EW-22 (Ewing's Sarcoma)) did it give?
A: 0.0143

Q: What about the Bliss excess [1] of the same compound?
A: -0.0439

Q: What about the Bliss excess [2] of the same compound?
A: 0.0073

Q: And the Bliss excess [3]?
A: 0.0122

Q: And the Bliss excess [4]?
A: -0.0143

Q: What about the Bliss excess (HuO9 (Osteosarcoma)) of the same compound?
A: 0.0236

Q: What about the Bliss excess (D-392MG (Glioblastoma)) of the same compound?
A: -0.0549

Q: And the Bliss excess (H4 (Low Grade Glioma))?
A: -0.0404

Q: And the Bliss excess [5]?
A: 0.0138

Q: And the Bliss excess (MSTO-211H (Mesothelioma))?
A: 0.0418

Q: And the Bliss excess [6]?
A: -0.0129

Q: And the Bliss excess (SK-MEL-1 (Melanoma))?
A: -0.0216

Q: And the Bliss excess [7]?
A: -0.0047

Q: What about the Bliss excess [8] of the same compound?
A: 0.0294

Q: What about the Bliss excess [9] of the same compound?
A: -0.0043

Q: What about the Bliss excess [10] of the same compound?
A: 0.0001

Q: And the Bliss excess [11]?
A: 0.128

Q: What about the Bliss excess [12] of the same compound?
A: -0.0462

Q: What about the Bliss excess [13] of the same compound?
A: 0.0017

Q: What about the Bliss excess [14] of the same compound?
A: -0.0134

Q: What does the source list for `COc1cccc(OCCCN)c1-c1cc(Nc2cnc(C#N)cn2)n[nH]1` [Prexasertib] + Cc1cc2ncnn2cc1Nc1ncc2c(n1)n(C1CCOCC1)c(=O)n2C [AZD7648] (first compound max 1 µM, 7x7, partner max 10 µM)?
A: Bliss excess (EW-22 (Ewing's Sarcoma)): -0.0519; Bliss excess [1]: -0.058; Bliss excess [2]: -0.0199; Bliss excess [3]: 0.0078; Bliss excess [4]: -0.072; Bliss excess (HuO9 (Osteosarcoma)): -0.105; Bliss excess (D-392MG (Glioblastoma)): -0.0254; Bliss excess (H4 (Low Grade Glioma)): -0.0369; Bliss excess [5]: -0.0284; Bliss excess (MSTO-211H (Mesothelioma)): -0.0059; Bliss excess [6]: -0.075; Bliss excess (SK-MEL-1 (Melanoma)): -0.0247; Bliss excess [7]: -0.0123; Bliss excess [8]: 0.059; Bliss excess [9]: -0.0344; Bliss excess [10]: -0.0363; Bliss excess [11]: -0.0264; Bliss excess [12]: -0.0255; Bliss excess [13]: -0.0122; Bliss excess [14]: 0.0204

Q: For `COc1cc2c(cc1OCCCCCOc1cc3c(cc1OC)C(=O)N1C=C(C)C[C@H]1C=N3)N=C[C@@H]1CC(C)=CN1C2=O` [SG3199] + O=C(c1cc(Cc2n[nH]c(=O)c3ccccc23)ccc1F)N1CCN(C(=O)C2CC2)CC1 [Olaparib] (first compound max 0.001 µM, 7x7, partner max 10 µM), which Bliss excess (EW-22 (Ewing's Sarcoma)) is on record?
A: -0.0544

Q: And the Bliss excess [1]?
A: -0.0311

Q: What about the Bliss excess [2] of the same compound?
A: -0.053

Q: And the Bliss excess [3]?
A: -0.0375

Q: What about the Bliss excess [4] of the same compound?
A: -0.046

Q: What about the Bliss excess (HuO9 (Osteosarcoma)) of the same compound?
A: -0.0273

Q: And the Bliss excess (D-392MG (Glioblastoma))?
A: -0.0623

Q: And the Bliss excess (H4 (Low Grade Glioma))?
A: -0.0406

Q: And the Bliss excess [5]?
A: -0.0222

Q: What about the Bliss excess (MSTO-211H (Mesothelioma)) of the same compound?
A: -0.0175

Q: What about the Bliss excess [6] of the same compound?
A: -0.052

Q: And the Bliss excess (SK-MEL-1 (Melanoma))?
A: -0.0239

Q: What about the Bliss excess [7] of the same compound?
A: -0.0453

Q: What about the Bliss excess [8] of the same compound?
A: -0.0021

Q: What about the Bliss excess [9] of the same compound?
A: -0.0321

Q: And the Bliss excess [10]?
A: -0.0326

Q: What about the Bliss excess [11] of the same compound?
A: 0.0015

Q: And the Bliss excess [12]?
A: -0.0645

Q: What about the Bliss excess [13] of the same compound?
A: -0.0306

Q: What about the Bliss excess [14] of the same compound?
A: -0.0314

Q: With `Cc1cc2ncnn2cc1Nc1ncc2c(n1)n(C1CCOCC1)c(=O)n2C` [AZD7648] + CN(C)CCCOc1ccc(-c2ccc3ncc4c(c3c2)n(C2CCOCC2)c(=O)n4C)cn1 [AZD0156] (first compound max 10 µM, 7x7, partner max 1 µM) as the compound, how does the Bliss excess (EW-22 (Ewing's Sarcoma)) read?
A: 0.0335

Q: And the Bliss excess [1]?
A: -0.0215

Q: What about the Bliss excess [2] of the same compound?
A: -0.0119

Q: And the Bliss excess [3]?
A: 0.0028

Q: What about the Bliss excess [4] of the same compound?
A: -0.0465

Q: What about the Bliss excess (HuO9 (Osteosarcoma)) of the same compound?
A: 0.0522

Q: And the Bliss excess (D-392MG (Glioblastoma))?
A: -0.0405

Q: And the Bliss excess (H4 (Low Grade Glioma))?
A: -0.0253

Q: What about the Bliss excess [5] of the same compound?
A: 0.0073

Q: And the Bliss excess (MSTO-211H (Mesothelioma))?
A: 0.0388

Q: What about the Bliss excess [6] of the same compound?
A: -0.0735

Q: What about the Bliss excess (SK-MEL-1 (Melanoma)) of the same compound?
A: -0.0082

Q: And the Bliss excess [7]?
A: -0.0151

Q: What about the Bliss excess [8] of the same compound?
A: -0.0041

Q: And the Bliss excess [9]?
A: -0.0183

Q: What about the Bliss excess [10] of the same compound?
A: -0.0108

Q: And the Bliss excess [11]?
A: -0.0155

Q: And the Bliss excess [12]?
A: 0.0381

Q: And the Bliss excess [13]?
A: -0.0104

Q: And the Bliss excess [14]?
A: -0.0164

Q: With `COc1nnc2ccc(N3CCC(c4ccc(OCCN5CCN(C)C(=O)[C@H]5C)cc4)CC3)nn12` [AZD5153] + Cc1c2c(nn1C)CSCc1cc(n(C)n1)CSc1cc(c3ccccc3c1)OCCCc1c(C(=O)O)n(C)c3c-2c(Cl)ccc13 [AZD5991] (first compound max 1 µM, 7x7, partner max 1 µM) as the compound, how does the Bliss excess (EW-22 (Ewing's Sarcoma)) read?
A: 0.0553

Q: What about the Bliss excess [1] of the same compound?
A: 0.0307

Q: What about the Bliss excess [2] of the same compound?
A: -0.0467

Q: What about the Bliss excess [3] of the same compound?
A: 0.0003

Q: What about the Bliss excess [4] of the same compound?
A: -0.0363

Q: And the Bliss excess (HuO9 (Osteosarcoma))?
A: 0.0377

Q: What about the Bliss excess (D-392MG (Glioblastoma)) of the same compound?
A: -0.0388

Q: What about the Bliss excess (H4 (Low Grade Glioma)) of the same compound?
A: -0.0287

Q: What about the Bliss excess [5] of the same compound?
A: -0.0033

Q: What about the Bliss excess (MSTO-211H (Mesothelioma)) of the same compound?
A: 0.0307

Q: And the Bliss excess [6]?
A: -0.0843

Q: What about the Bliss excess (SK-MEL-1 (Melanoma)) of the same compound?
A: -0.0016

Q: And the Bliss excess [7]?
A: -0.0178

Q: And the Bliss excess [8]?
A: -0.0436

Q: And the Bliss excess [9]?
A: 0.015

Q: What about the Bliss excess [10] of the same compound?
A: -0.0104

Q: And the Bliss excess [11]?
A: 0.0382

Q: And the Bliss excess [12]?
A: -0.0869

Q: What about the Bliss excess [13] of the same compound?
A: 0.0313

Q: And the Bliss excess [14]?
A: -0.119

Q: `Cc1c2c(nn1C)CSCc1cc(n(C)n1)CSc1cc(c3ccccc3c1)OCCCc1c(C(=O)O)n(C)c3c-2c(Cl)ccc13` [AZD5991] + CCN(CCO)CCCOc1ccc2c(Nc3cc(CC(=O)Nc4cccc(F)c4)[nH]n3)ncnc2c1 [AZD2811] (first compound max 1 µM, 7x7, partner max 1 µM) was tested. Which Bliss excess (EW-22 (Ewing's Sarcoma)) did it give?
A: 0.0711

Q: And the Bliss excess [1]?
A: 0.0444

Q: And the Bliss excess [2]?
A: 0.0012

Q: What about the Bliss excess [3] of the same compound?
A: -0.0538

Q: And the Bliss excess [4]?
A: 0.0438

Q: And the Bliss excess (HuO9 (Osteosarcoma))?
A: -0.0035

Q: And the Bliss excess (D-392MG (Glioblastoma))?
A: 0.0121

Q: What about the Bliss excess (H4 (Low Grade Glioma)) of the same compound?
A: 0.0207

Q: What about the Bliss excess [5] of the same compound?
A: 0.0446

Q: What about the Bliss excess (MSTO-211H (Mesothelioma)) of the same compound?
A: 0.0477

Q: What about the Bliss excess [6] of the same compound?
A: -0.0567

Q: What about the Bliss excess (SK-MEL-1 (Melanoma)) of the same compound?
A: -0.0194

Q: What about the Bliss excess [7] of the same compound?
A: 0.0315

Q: And the Bliss excess [8]?
A: -0.0018

Q: What about the Bliss excess [9] of the same compound?
A: -0.0063

Q: And the Bliss excess [10]?
A: 0.002

Q: What about the Bliss excess [11] of the same compound?
A: 0.032

Q: What about the Bliss excess [12] of the same compound?
A: -0.0193

Q: And the Bliss excess [13]?
A: -0.0192

Q: And the Bliss excess [14]?
A: 0.0734
